Test results from PubChem BioAssay (NCI).
Where “and” joins values, the source holds several entries; their conditions need not be identical. Identical values can stand only once.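 Tested at 5 concentrations; 48 h exposure; 96-well plates; endpoints linearly interpolated, else capped at highest concentration. Abbreviation: GI50, concentration required for 50% inhibition of growth. The concentration for full growth arrest is given as TGI.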

What was measured:
Assay in all cases: DTP human tumour cell line panel, 48 h
MDA-MB-468 breast = system: MDA-MB-468 breast
786-0 renal = system: 786-0 renal
A498 renal = system: A498 renal
A549 NSCLC = system: A549 NSCLC
ACHN renal = system: ACHN renal
BT-549 breast = system: BT-549 breast
CAKI-1 renal = system: CAKI-1 renal
CCRF-CEM leukemia = system: CCRF-CEM leukemia
COLO 205 colon = system: COLO 205 colon
DU-145 prostate = system: DU-145 prostate
EKVX NSCLC = system: EKVX NSCLC
HCC-2998 colon = system: HCC-2998 colon
HCT-116 colon = system: HCT-116 colon
HCT-15 colon = system: HCT-15 colon
HOP-62 NSCLC = system: HOP-62 NSCLC
HOP-92 NSCLC = system: HOP-92 NSCLC
HT29 colon = system: HT29 colon
IGROV1 ovarian = system: IGROV1 ovarian
K-562 leukemia = system: K-562 leukemia
KM12 colon = system: KM12 colon
LOX IMVI melanoma = system: LOX IMVI melanoma
MALME-3M melanoma = system: MALME-3M melanoma
MCF7 breast = system: MCF7 breast
MDA-MB-231 breast = system: MDA-MB-231 breast
MOLT-4 leukemia = system: MOLT-4 leukemia
NCI-H226 lung = system: NCI-H226 lung
NCI-H23 lung = system: NCI-H23 lung
NCI-H460 lung = system: NCI-H460 lung
NCI-H522 lung = system: NCI-H522 lung
OVCAR-3 ovarian = system: OVCAR-3 ovarian
OVCAR-4 ovarian = system: OVCAR-4 ovarian
OVCAR-5 ovarian = system: OVCAR-5 ovarian
OVCAR-8 ovarian = system: OVCAR-8 ovarian
PC-3 prostate = system: PC-3 prostate
RPMI-8226 leukemia = system: RPMI-8226 leukemia
SF-268 CNS = system: SF-268 CNS
SF-295 CNS = system: SF-295 CNS
SK-MEL-2 melanoma = system: SK-MEL-2 melanoma
SK-MEL-28 melanoma = system: SK-MEL-28 melanoma
SK-MEL-5 melanoma = system: SK-MEL-5 melanoma
SK-OV-3 ovarian = system: SK-OV-3 ovarian
SN12C renal = system: SN12C renal
SNB-19 CNS = system: SNB-19 CNS
SNB-75 CNS = system: SNB-75 CNS
SR leukemia = system: SR leukemia
SW-620 colon = system: SW-620 colon
T-47D breast = system: T-47D breast
TK-10 renal = system: TK-10 renal
U251 CNS = system: U251 CNS
UACC-257 melanoma = system: UACC-257 melanoma
UACC-62 melanoma = system: UACC-62 melanoma
UO-31 renal = system: UO-31 renal

## CCOc1cccc(/C=N/NC(=O)c2cccc(Nc3ccnc(C(F)(F)F)c3)c2)c1O
MDA-MB-468 breast
  GI50: 327 nM
  TGI: > 100000 nM

## O=C1C=CC(=O)C2C1C1(Cl)C(Cl)=C(Cl)C2(Cl)C1(Cl)Cl (stereo not given)
MDA-MB-468 breast
  GI50: 3290 nM
  TGI: 11300 nM

## CC(=O)Nc1cccc(Nc2nccc(N[C@@H](C)c3ccccc3)n2)c1
786-0 renal
  GI50: 602 nM
  TGI: > 10000 nM
A498 renal
  TGI: > 10000 nM
A549 NSCLC
  GI50: 418 nM
  TGI: > 10000 nM
ACHN renal
  GI50: 509 nM
  TGI: > 10000 nM
BT-549 breast
  GI50: 442 nM
  TGI: > 10000 nM
CAKI-1 renal
  GI50: 108 nM
  TGI: > 10000 nM
CCRF-CEM leukemia
  GI50: 233 nM
  TGI: > 10000 nM
COLO 205 colon
  GI50: 262 nM
  TGI: 1080 nM
DU-145 prostate
  GI50: 383 nM
  TGI: > 10000 nM
EKVX NSCLC
  GI50: 363 nM
  TGI: > 10000 nM
HCC-2998 colon
  GI50: 423 nM
  TGI: > 10000 nM
HCT-116 colon
  GI50: 276 nM
  TGI: > 10000 nM
HCT-15 colon
  GI50: 121 nM
  TGI: > 10000 nM
HOP-62 NSCLC
  GI50: 345 nM
  TGI: > 10000 nM
HOP-92 NSCLC
  GI50: 793 nM
  TGI: > 10000 nM
HT29 colon
  GI50: 194 nM
  TGI: > 10000 nM
IGROV1 ovarian
  GI50: 370 nM
  TGI: > 10000 nM
K-562 leukemia
  GI50: 49.8 nM
  TGI: > 10000 nM
KM12 colon
  GI50: 104 nM
  TGI: > 10000 nM
LOX IMVI melanoma
  GI50: 390 nM
  TGI: > 10000 nM
MALME-3M melanoma
  GI50: 102 nM
  TGI: > 10000 nM
MCF7 breast
  GI50: 171 nM
  TGI: > 10000 nM
MDA-MB-231 breast
  GI50: 416 nM
  TGI: > 10000 nM
MOLT-4 leukemia
  GI50: 327 nM
  TGI: > 10000 nM
NCI-H226 lung
  GI50: 1000 nM
  TGI: > 10000 nM
NCI-H23 lung
  GI50: 239 nM
  TGI: > 10000 nM
NCI-H460 lung
  GI50: 246 nM
  TGI: > 10000 nM
NCI-H522 lung
  GI50: 129 nM
  TGI: 1240 nM
OVCAR-3 ovarian
  GI50: 118 nM
  TGI: > 10000 nM
OVCAR-4 ovarian
  GI50: 1020 nM
  TGI: > 10000 nM
OVCAR-5 ovarian
  GI50: 409 nM
  TGI: > 10000 nM
OVCAR-8 ovarian
  GI50: 363 nM
  TGI: > 10000 nM
PC-3 prostate
  GI50: 319 nM
  TGI: > 10000 nM
RPMI-8226 leukemia
  GI50: 293 nM
  TGI: > 10000 nM
SF-268 CNS
  GI50: 990 nM
  TGI: > 10000 nM
SF-295 CNS
  GI50: 110 nM
  TGI: 522 nM
SK-MEL-2 melanoma
  GI50: 180 nM
  TGI: > 10000 nM
SK-MEL-28 melanoma
  GI50: 703 nM
  TGI: > 10000 nM
SK-MEL-5 melanoma
  GI50: 125 nM
  TGI: 481 nM
SK-OV-3 ovarian
  GI50: 675 nM
  TGI: > 10000 nM
SN12C renal
  GI50: 559 nM
  TGI: > 10000 nM
SNB-19 CNS
  GI50: 335 nM
  TGI: > 10000 nM
SNB-75 CNS
  GI50: 119 nM
  TGI: > 10000 nM
SR leukemia
  GI50: 45.3 nM
  TGI: > 10000 nM
SW-620 colon
  GI50: 194 nM
  TGI: > 10000 nM
T-47D breast
  GI50: 331 nM
  TGI: > 10000 nM
TK-10 renal
  GI50: 760 nM
  TGI: > 10000 nM
U251 CNS
  GI50: 289 nM
  TGI: > 10000 nM
UACC-257 melanoma
  GI50: 908 nM
  TGI: > 10000 nM
UACC-62 melanoma
  GI50: 126 nM
  TGI: > 10000 nM
UO-31 renal
  GI50: 372 nM
  TGI: > 10000 nM

## CCCCCCCCn1ccc2cc(NC(=O)Cn3cc(CN4CCCCCC4)nn3)ccc21
MDA-MB-468 breast
  GI50: 1650 nM
  TGI: 3330 nM

## COC(=O)c1ccc2[nH]c(O)c(C(=Nc3ccc(N(C)C(=O)CN4CCN(C)CC4)cc3)c3ccc4c(c3)OCO4)c2c1
MDA-MB-468 breast
  GI50: 840 nM
  TGI: 2380 nM

## O=c1[nH]c2ccccc2cc1-c1nc2ccc(Cl)cc2[nH]1
MDA-MB-468 breast
  GI50: 3260 nM
  TGI: > 100000 nM

## CCCOC(=O)N[C@H]1CCc2c(Cl)c(OC)c(OC)c(OC)c2-c2ccc(SC)c(=O)cc21
MDA-MB-468 breast
  GI50: < 10 nM
  TGI: 16300 nM

## CCCC(C)c1ccc(OCCCCCCN2CCNCC2)cc1 (stereo not given)
MDA-MB-468 breast
  GI50: 1710 nM
  TGI: 3490 nM

## O=C(/C=C/c1ccccc1)Nc1ncc(Cc2ccccc2Cl)s1
MDA-MB-468 breast
  GI50: 370 nM
  TGI: > 71500 nM

## O=C(O)c1ccc(CN2CCC(CN[C@@H]3C[C@H]3c3ccccc3)CC2)cc1
MDA-MB-468 breast
  GI50: > 100000 nM
  TGI: > 100000 nM

## COc1cc(Nc2ncccc2C(=O)Nc2nc3ccc(F)cc3s2)cc(OC)c1OC
MDA-MB-468 breast
  GI50: 1220 nM
  TGI: 8850 nM

## COc1cc(C2c3cc4c(cc3OC(C)(N3CCCC3)C2C)OCO4)cc(OC)c1OC (stereo not given)
MDA-MB-468 breast
  GI50: 419 nM
  TGI: 31200 nM

## CN(c1ccc(NC(=O)Nc2c(Cl)cccc2Cl)cc1)c1ccnc(Nc2cccc(CS(C)(=O)=O)c2)n1
MDA-MB-468 breast
  GI50: 1110 nM
  TGI: 6440 nM

## C=C1c2c(C)nn(-c3ccc(C#CCOC4OC(CO)C(O)C(O)C4O)cc3)c2N(C)C23C[C@H]1C1(C)c4c(C)nn(-c5ccc(C#CCOC6OC(CO)C(O)C(O)C6O)cc5)c4N(C)C(C)(C[C@H]12)C3 (stereo not given in full)
MDA-MB-468 breast
  GI50: 1340 nM
  TGI: 2730 nM

## Nc1ncc(-c2cnn(C3CCNCC3)c2)cc1-c1nc2cc(Cl)ccc2o1
MDA-MB-468 breast
  GI50: 1650 nM
  TGI: 3290 nM

## CCN1C(=O)c2ccc3c4c(ccc(c24)C1=O)C(=O)N(CCCNCc1ccccc1OC)C3=O
MDA-MB-468 breast
  GI50: 326 nM
  TGI: 1300 nM

## Nc1n[nH]c2cccc(C#Cc3cccc(NC(=O)c4cccc(C(F)(F)F)c4)c3)c12
MDA-MB-468 breast
  GI50: 9710 nM
  TGI: 28200 nM

## COc1cccc2c1C(=N)c1c(O)c3c(c(O)c1C2=O)C[C@@](O)(C(C)=O)C[C@@H]3O[C@H]1C[C@H](N)[C@H](O)[C@H](C)O1
MDA-MB-468 breast
  GI50: 278 nM
  TGI: 1280 nM

## Cc1nnc(-c2ccc(C)c(-c3ccc(C(=O)Nc4cccc(C#N)c4)cc3)c2)o1
MDA-MB-468 breast
  GI50: 8650 nM
  TGI: > 25000 nM

## C=C(C)[C@@H]1CC[C@]2(COCCCN)CC[C@]3(C)[C@H](CC[C@@H]4[C@@](C)(CCCNCCCN)[C@H](C(=C)C)CC[C@]43C)[C@@H]12
MDA-MB-468 breast
  GI50: 1870 nM
  TGI: 3750 nM

## O=C1NC(=S)S/C1=C/c1ccc2c(c1)OCO2
MDA-MB-468 breast
  GI50: > 100000 nM
  TGI: > 100000 nM

## CC/C=C\C[C@H]1CC=C2C(=O)C=C[C@@H]2CC=CCCCC(=O)O[C@@H](CCCCC)CC=C2C(=O)C=C[C@@H]2CC=CCCCC(=O)O[C@@H](CCCCC)CC=C2C(=O)C=C[C@@H]2CC=CCCCC(=O)O[C@@H](CCCCC)CC=C2C(=O)C=C[C@@H]2CC=CCCCC(=O)O1
MDA-MB-468 breast
  GI50: 1700 nM
  TGI: 4220 nM

## COc1ccc2c(c1)NC1=C(C(=O)OC1)C2c1cc(OC)c(OC)c(OC)c1 (stereo not given)
MDA-MB-468 breast
  GI50: < 10 nM
  TGI: < 10 nM

## CN(C)C/C=C/C(=O)Nc1ccc(C(=O)N[C@@]2(C)CCC[C@@H](Nc3ncc(Cl)c(-c4c[nH]c5ccccc45)n3)C2)nc1
MDA-MB-468 breast
  GI50: 10.8 nM
  TGI: 35.2 nM

## C=CC(=O)N1CCC(Oc2cc3c(Nc4ccc(Cl)c(Cl)c4F)ncnc3cc2OC)CC1
MDA-MB-468 breast
  GI50: < 1 nM
  TGI: < 10 nM and 19.9 nM

## CCOc1cc(C(C)(C)C)ccc1C1=N[C@H](c2ccc(Cl)cc2)[C@H](c2ccc(Cl)cc2)N1C(=O)N1CCN(CC#Cc2cccc3c2CN([C@@H]2CCC(=O)NC2=O)C3=O)CC1
MDA-MB-468 breast
  GI50: 32.1 nM
  TGI: > 100000 nM

## O=C(NC(=O)c1c(F)cccc1F)Nc1cccc(Oc2ncc(Cl)cn2)c1
MDA-MB-468 breast
  GI50: 7780 nM
  TGI: > 100000 nM

## NC(CSC(c1ccccc1)(c1ccccc1)c1ccccc1)C(=O)NCC(=O)O (stereo not given)
MDA-MB-468 breast
  GI50: 2880 nM
  TGI: 17700 nM

## Cc1cn(-c2cc(NC(=O)c3cccc(C#Cc4cccc5[nH]nc(N)c45)c3)cc(C(F)(F)F)c2)cn1
MDA-MB-468 breast
  GI50: 17100 nM
  TGI: > 100000 nM

## CC1(C)N=C(N)N=C(N)N1c1ccc(CCC(=O)Nc2ccc(S(=O)(=O)F)cc2)c(Cl)c1
MDA-MB-468 breast
  GI50: 864 nM
  TGI: > 100000 nM

## CS(=O)(=O)CCNCc1coc(-c2ccc3ncnc(Nc4ccc(OCc5ccccc5)cc4)c3c2)c1
MDA-MB-468 breast
  GI50: 543 nM
  TGI: 3800 nM

## O=C(Oc1ccc[nH]c1=O)c1cc([N+](=O)[O-])cc([N+](=O)[O-])c1
MDA-MB-468 breast
  GI50: > 100000 nM
  TGI: > 100000 nM

## CCN(CC)CCNC(Cc1ccccc1)c1ccc(OCc2ccccc2)cc1 (stereo not given)
MDA-MB-468 breast
  GI50: 4240 nM
  TGI: 18300 nM
